Results as given in patent US10681908B2, “Molecules having pesticidal utility, and intermediates, compositions, and processes, related thereto” (Dow AgroSciences LLC, priority 2016, dated 2020).

Key:
Type in all cases: in vivo
[1] = tested on: Yellow Fever Mosquito (Aedes aegypti, AEDSAE); conditions: about 1 day-old larvae, 3 days, room temperature, scored on mortality
Procedure: Example C: Bioassays on Yellow Fever Mosqurro (Aedes aegypti, AEDSAE) (“YFM”)
Certain molecules disclosed in this document were tested against YFM using procedures described in the following paragraph. In the reporting of the results, the “GPA & YFM Rating Table” was used (See Table Section).
Master plates containing 400 μg of a molecule dissolved in 100 μL of dimethyl sulfoxide (DMSO) (equivalent to a 4000 ppm solution) are used. A master plate of assembled molecules contains 15 μL per well. To this plate, 135 μL of a 90:10 water:acetone mixture is added to each well. A robot (Biomek® NXP Laboratory Automation Workstation) is programmed to dispense 15 μL aspirations from the master plate into an empty 96-well shallow plate (“daughter” plate). There are 6 reps (“daughter” plates) created per master. The created daughter plates are then immediately infested with YFM larvae.
The day before plates are to be treated, mosquito eggs are placed in Millipore water containing liver powder to begin hatching (4 g. into 400 mL). After the daughter plates are created using the robot, they are infested with 220 μL of the liver powder/larval mosquito mixture (about 1 day-old larvae). After plates are infested with mosquito larvae, a non-evaporative lid is used to cover the plate to reduce drying. Plates are held at room temperature for 3 days prior to grading. After 3 days, each well is observed and scored based on mortality. The results are indicated in the table entitled “Table ABC: Biological Results” (See Table Section).

[2] = tested on: Cabbage Looper (Trichoplusia ni, TRIPNI); test: Bioassay on Cabbage Looper (CL), 128-well diet tray assay; conditions: 168 h, 50 μg/cm^2 on artificial diet, second instar larvae, five to seven days, 25° C., read-out: CL % Control (or Mortality) rating
Outline: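 Diet-tray assay: 1–5 second-instar larvae per well on artificial diet surface-treated with 50 μg/cm^2 compound (90:10 acetone-water, dried), eight wells per compound. Held at 25° C., 14:10 light-dark for five to seven days; percent mortality per well averaged across the eight wells.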

[3] = tested on: Beet Armyworm (Spodoptera exigua, LAPHEG); test: Bioassay on Beet Armyworm (BAW), 128-well diet tray assay; conditions: 168 h, 50 μg/cm^2 on artificial diet, second instar larvae, five to seven days, 25° C., read-out: BAW % Control (or Mortality) rating
Outline: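 Artificial diet was surface-treated with 50 μg/cm^2 of compound in 90:10 acetone-water and dried; one to five second-instar larvae were placed per well, eight wells per treatment. Held at 25 °C, 14:10 light-dark, for five to seven days, then percent mortality per well was averaged.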

| Compound | YFM % Control (or Mortality) rating [1] | mortality at 50 µg/cm2 [2] [%] | mortality at 50 µg/cm2 [3] [%] |
| --- | --- | --- | --- |
| C[C@H](CS(=O)(=O)CC(F)(F)F)NC(=O)c1ccc(/C(F)=C/C(c2ccc(Cl)c(Cl)c2)C(F)(F)F)cc1C(F)(F)F (stereo partly drawn) [F18, 4-((Z)-3-(3,4-Dichlorophenyl)-1,4,4,4-tetrafluorobut-1-en-1-yl)-N—((R)-1-((2,2,2-trifluoroethyl)sulfonyl)propan-2-yl)-2-(trifluoromethyl)benzamide] | A (80-100) | 50 to 100 | 50 to 100 |
| C[C@H](CSCC(F)(F)F)NC(=O)c1ccc(/C(F)=C/C(c2cc(Cl)cc(Cl)c2)C(F)(F)F)cc1C(F)(F)F (stereo partly drawn) [F19, 4-((Z)-3-(3,5-Dichlorophenyl)-1,4,4,4-tetrafluorobut-1-en-1-yl)-N—((R)-1-((2,2,2-trifluoroethyl)thio)propan-2-yl)-2-(trifluoromethyl)benzamide] | A (80-100) | 50 to 100 | 50 to 100 |
| C[C@H](CSCC(F)(F)F)NC(=O)c1ccc(/C(F)=C/C(c2ccc(Cl)c(Cl)c2)C(F)(F)F)cc1C(F)(F)F (stereo partly drawn) [F20, 4-((Z)-3-(3,4-Dichlorophenyl)-1,4,4,4-tetrafluorobut-1-en-1-yl)-N—((R)-1-((2,2,2-trifluoroethyl)thio)propan-2-yl)-2-(trifluoromethyl)benzamide] | D (No activity noticed in this bioassay) | 50 to 100 | 50 to 100 |
| C[C@H](C[S+]([O-])CC(F)(F)F)NC(=O)c1ccc(/C(F)=C/C(c2cc(Br)c(Cl)c(Br)c2)C(F)(F)F)cc1C(F)(F)F (stereo partly drawn) [F23, 4-((Z)-3-(3,5-Dibromo-4-chlorophenyl)-1,4,4,4-tetrafluorobut-1-en-1-yl)-N-((2R)-1-((2,2,2-trifluoroethyl)sulfinyl)propan-2-yl)-2-(trifluoromethyl)benzamide] | A (80-100) | 50 to 100 | 50 to 100 |
| C[C@H](CS(=O)(=O)CC(F)(F)F)NC(=O)c1ccc(/C(F)=C/C(c2cc(Cl)c(Br)c(Cl)c2)C(F)(F)F)cc1C(F)(F)F (stereo partly drawn) [F25, 4-((Z)-3-(4-Bromo-3,5-dichlorophenyl)-1,4,4,4-tetrafluorobut-1-en-1-yl)-N—((R)-1-((2,2,2-trifluoroethyl)sulfonyl)propan-2-yl)-2-(trifluoromethyl)benzamide] | A (80-100) | 50 to 100 | 50 to 100 |
| C[C@H](C[S+]([O-])CC(F)(F)F)NC(=O)c1ccc(/C(F)=C/C(c2cc(Cl)c(Br)c(Cl)c2)C(F)(F)F)cc1C(F)(F)F (stereo partly drawn) [F26, 4-((Z)-3-(4-Bromo-3,5-dichlorophenyl)-1,4,4,4-tetrafluorobut-1-en-1-yl)-N-((2R)-1-((2,2,2-trifluoroethyl)sulfinyl)propan-2-yl)-2-(trifluoromethyl)benzamide] | A (80-100) | 50 to 100 | 50 to 100 |
| C[C@H](C[S+]([O-])CC(F)(F)F)NC(=O)c1ccc(/C(F)=C/C(c2cc(Cl)cc(Cl)c2)C(F)(F)F)cc1C(F)(F)F (stereo partly drawn) [F27, 4-((Z)-3-(3,5-Dichlorophenyl)-1,4,4,4-tetrafluorobut-1-en-1-yl)-N-((2R)-1-((2,2,2-trifluoroethyl)sulfinyl)propan-2-yl)-2-(trifluoromethyl)benzamide] | A (80-100) | 50 to 100 | 50 to 100 |
| C[C@H](C[S+]([O-])CC(F)(F)F)NC(=O)c1ccc(/C(F)=C/C(c2ccc(Cl)c(Cl)c2)C(F)(F)F)cc1C(F)(F)F (stereo partly drawn) [F28, 4-((Z)-3-(3,4-Dichlorophenyl)-1,4,4,4-tetrafluorobut-1-en-1-yl)-N-((2R)-1-((2,2,2-trifluoroethyl)sulfinyl)propan-2-yl)-2-(trifluoromethyl)benzamide] | B (More than 0-Less than 80) | 50 to 100 | 50 to 100 |
| C[C@H](CS(=O)(=O)CC(F)(F)F)NC(=O)c1ccc(/C(F)=C/C(c2cc(Cl)c(F)c(Cl)c2)C(F)(F)F)cc1C(F)(F)F (stereo partly drawn) [F29, 4-((Z)-3-(3,5-Dichloro-4-fluorophenyl)-1,4,4,4-tetrafluorobut-1-en-1-yl)-N—((R)-1-((2,2,2-trifluoroethyl)sulfonyl)propan-2-yl)-2-(trifluoromethyl)benzamide] | A (80-100) | 50 to 100 | 50 to 100 |
| C[C@H](CSCC(F)(F)F)NC(=O)c1ccc(/C(F)=C/C(c2cc(Br)cc(Br)c2)C(F)(F)F)cc1C(F)(F)F (stereo partly drawn) [F30, 4-((Z)-3-(3,5-Dibromophenyl)-1,4,4,4-tetrafluorobut-1-en-1-yl)-N—((R)-1-((2,2,2-trifluoroethyl)thio)propan-2-yl)-2-(trifluoromethyl)benzamide] | A (80-100) | 50 to 100 | 50 to 100 |
| C[C@H](C[S+]([O-])CC(F)(F)F)NC(=O)c1ccc(/C(F)=C/C(c2cc(Br)cc(Br)c2)C(F)(F)F)cc1C(F)(F)F (stereo partly drawn) [F31, 4-((Z)-3-(3,5-Dibromophenyl)-1,4,4,4-tetrafluorobut-1-en-1-yl)-N-((2R)-1-((2,2,2-trifluoroethyl)sulfinyl)propan-2-yl)-2-(trifluoromethyl)benzamide] | B (More than 0-Less than 80) | 50 to 100 | 50 to 100 |
| C=Cc1c(Cl)cc(C(/C=C(\F)c2ccc(C(=O)N[C@H](C)CSCC(F)(F)F)c(C(F)(F)F)c2)C(F)(F)F)cc1Cl (stereo partly drawn) [F32, 4-((Z)-3-(3,5-Dichloro-4-vinylphenyl)-1,4,4,4-tetrafluorobut-1-en-1-yl)-N—((R)-1-((2,2,2-trifluoroethyl)thio)propan-2-yl)-2-(trifluoromethyl)benzamide] | A (80-100) | 50 to 100 | 50 to 100 |
| C=Cc1c(Cl)cc(C(/C=C(\F)c2ccc(C(=O)N[C@H](C)CS(=O)(=O)CC(F)(F)F)c(C(F)(F)F)c2)C(F)(F)F)cc1Cl (stereo partly drawn) [F33, 4-((Z)-3-(3,5-Dichloro-4-vinylphenyl)-1,4,4,4-tetrafluorobut-1-en-1-yl)-N—((R)-1-((2,2,2-trifluoroethyl)sulfonyl)propan-2-yl)-2-(trifluoromethyl)benzamide] | A (80-100) | 50 to 100 | 50 to 100 |
| C=Cc1c(Cl)cc(C(/C=C(\F)c2ccc(C(=O)N[C@H](C)C[S+]([O-])CC(F)(F)F)c(C(F)(F)F)c2)C(F)(F)F)cc1Cl (stereo partly drawn) [F34, 4-((Z)-3-(3,5-Dichloro-4-vinylphenyl)-1,4,4,4-tetrafluorobut-1-en-1-yl)-N-((2R)-1-((2,2,2-trifluoroethyl)sulfinyl)propan-2-yl)-2-(trifluoromethyl)benzamide] | A (80-100) | 50 to 100 | 50 to 100 |
| Cc1cc(C(/C=C(\F)c2ccc(C(=O)N[C@H](C)CS(=O)(=O)CC(F)(F)F)c(C(F)(F)F)c2)C(F)(F)F)cc(C)c1Cl (stereo partly drawn) [F35, 4-((Z)-3-(4-Chloro-3,5-dimethylphenyl)-1,4,4,4-tetrafluorobut-1-en-1-yl)-N—((R)-1-((2,2,2-trifluoroethyl)sulfonyl)propan-2-yl)-2-(trifluoromethyl)benzamide] | A (80-100) | 50 to 100 | 50 to 100 |
| C[C@H](CSCC(F)(F)F)NC(=O)c1ccc(/C(F)=C/C(c2cc(Cl)c(F)c(Cl)c2)C(F)(F)F)cc1C(F)(F)F (stereo partly drawn) [F36, 4-((Z)-3-(3,5-Dichloro-4-fluorophenyl)-1,4,4,4-tetrafluorobut-1-en-1-yl)-N—((R)-1-((2,2,2-trifluoroethyl)thio)propan-2-yl)-2-(trifluoromethyl)benzamide] | A (80-100) | 50 to 100 | 50 to 100 |
| C[C@H](C[S+]([O-])CC(F)(F)F)NC(=O)c1ccc(/C(F)=C/C(c2cc(Cl)c(F)c(Cl)c2)C(F)(F)F)cc1C(F)(F)F (stereo partly drawn) [F37, 4-((Z)-3-(3,5-Dichloro-4-fluorophenyl)-1,4,4,4-tetrafluorobut-1-en-1-yl)-N-((2R)-1-((2,2,2-trifluoroethyl)sulfinyl)propan-2-yl)-2-(trifluoromethyl)benzamide] | A (80-100) | 50 to 100 | 50 to 100 |
